{
  "source": "patent US11938106B2",
  "about": "“Treatment of tinnitus using glutamate receptor agonists” (Northeast Ohio Medical University, priority 2016, dated 2024)",
  "key": {"[1]": {"system": "inferior colliculus (auditory midbrain)", "test": "Local field potentials (sound evoked activity) recorded in the IC of awake mice", "assay_type": "in vivo, mouse", "settings": "systemic administration, FIG. 13", "experimental": "FIG. 13 provides graphs showing that a group II mGluR agonist enhances of sound evoked activity in the IC. Local field potentials (LFPs) recorded in the IC of awake mice in response to 30 ms wideband noise (1-100 kHz, 80 dB SPL) recorded before, 30 min and 90 min after drug administration. LFPs shown here were generated based on 130 repetitions. SEMs are shown by grey\n(§1) The animals used were CBA/CaJ male mice, 8 months to 1.5 years old. Extracellular recording was carried out using Quartz micropipettes filled with 1M potassium acetate solution, 10-20 M ohms. Local field potential (LFP) was evaluated using a chronically implanted 4 channel multi-electrode array chronically implanted into IC in a freely moving animal via wireless recording system. For drug administration, the Group II mGluR agonist was administered via intravenous (3.5 mg/kg) or intraperitoneal (5 mg/kg) injections while recording neural activity. To evaluate startle input/output function, startle intensities were randomized within the range from 70 dB to 120 dB SPL. Startle was a broad band noise 20 ms duration. Inter-trial intervals were pseudo randomized between 15 and 25 sec. For gap detection, two trials were carried out. Trial I—The acoustic startle (110 dB SPL, 20 ms duration, wideband noise) imbedded in continuous background noise (65 dB SPL, third octave, centered at 10, 12.5, 16, 20, 25, and 31.5 kHz). […]"}, "[2]": {"test": "Gap detection performance (gap-induced suppression of acoustic startle) in mice", "assay_type": "in vivo, mouse", "settings": "7 mice, FIG. 14B, 30 min after drug administration", "experimental": "(§2) Adult CBA/CaJ mice were used for the study. […] Injection was performed remotely via an intravenous catheter inserted into the tail vein. Spontaneous firing rates of IC neurons were measured and compared before, during, and after of drug injection. To test whether this drug is affecting general sound processing in the auditory system of mice, the acoustic startle reflex and gap detection performance were also assessed.\nas §1, with “out.” for “out. Trial I—The acoustic startle (110 dB SPL, 20 ms duration, wideband noise) imbedded in continuous background noise (65 dB SPL, third octave, centered at 10, 12.5, 16, 20, 25, and 31.5 kHz).”"}, "[3]": {"test": "Acoustic startle reflex (startle input/output function)", "assay_type": "in vivo, mouse", "settings": "in 6 out of 7 mice tested, FIG. 14A, 30 min after drug administration", "experimental": "as §2\nas §1, with “out.” for “out. Trial I—The acoustic startle (110 dB SPL, 20 ms duration, wideband noise) imbedded in continuous background noise (65 dB SPL, third octave, centered at 10, 12.5, 16, 20, 25, and 31.5 kHz).”"}, "[4]": {"test": "Gap detection performance for behavioral assessment of tinnitus in the tinnitus mouse model", "assay_type": "in vivo", "settings": "one mouse, FIG. 17", "experimental": "Mice were assessed for tinnitus 3 months after exposure. The ability of mice to detect a gap of silence preceding the startle stimulus was determined using commercial hardware/software equipment from Kinder Scientific, Inc. Mice were placed in a small restrainer situated on a plate with a pressure sensor. Any animal motion was detected by the sensor which measured its amplitude and stored data on the computer hard drive. Kinder Scientific software was used to generate a sequence of stimulus trials including a startle stimulus presented alone (STARTLE) and a startle stimulus paired with a gap (GAP+STARTLE) embedded into continuous background noise. The background consisted of narrow-band (1/3 octave) noise centered at six different frequencies (10, 12.5, 16, 20, 25, and 31.5 kHz). […]\nTherefore, the data in each session were statistically analyzed to remove outliers (Grubbs' test for outliers). […] To calculate the GAP+STARTLE/STARTLE ratio we calculated the mean for all STARTLE values. […]\nThe presence of tinnitus in each mouse is assessed by pre-pulse inhibition of the acoustic startle reflex using the procedure developed by Turner et al. Turner et al., Behav Neurosci 120:188-195 (2006). […] The inventor measured the ratio of the startle response amplitude when preceded by a gap of silence over the startle response amplitude without preceded gap. […]"}, "IC neurons": {"system": "IC neurons", "test": "Extracellular recording of neuronal firing in the inferior colliculus of awake mice before, during and after systemic drug injection", "assay_type": "in vivo, mouse", "experimental": "as §2\nThe animals used were CBA/CaJ male mice, 8 months to 1.5 years old. Extracellular recording was carried out using Quartz micropipettes filled with 1M potassium acetate solution, 10-20 M ohms. Local field potential (LFP) was evaluated using a chronically implanted 4 channel multi-electrode array chronically implanted into IC in a freely moving animal via wireless recording system. For drug administration, the Group II mGluR agonist was administered via intravenous (3.5 mg/kg) or intraperitoneal (5 mg/kg) injections while recording neural activity. To evaluate startle input/output function, startle intensities were randomized within the range from 70 dB to 120 dB SPL. Startle was a broad band noise 20 ms duration. Inter-trial intervals were pseudo randomized between 15 and 25 sec. For gap detection, two trials were carried out. Trial I—The acoustic startle (110 dB SPL, 20 ms duration, wideband noise) imbedded in continuous background noise (65 dB SPL, third octave, centered at 10, 12.5, 16, 20, 25, and 31.5 kHz). Trial II—Trial I paired with a 20 ms gap embedded into background noise and presented 100 ms before the startle. Inter-trial intervals were pseudo randomized between 10 and 17 sec."}},
  "data": [
    {"smiles": "N[C@@]1(C(=O)O)CC[C@H]2[C@H](C(=O)O)[C@H]21", "note": "[LY354740, (1S,2S,5R,6S)-2-Aminobicyclo[3.1.0]hexane-2,6-dicarboxylic acid]", "values": [
      {"measurement": "effect on sound evoked activity", "setting": "[1]", "result": "did not change or slightly increased"},
      {"measurement": "effect on gap detection performance", "setting": "[2]", "result": "not affected"},
      {"measurement": "increase of magnitude of startle responses", "setting": "[3]", "result": "at least 20%"},
      {"measurement": "gap detection performance after systemic injection", "setting": "[4]", "result": "improvement of gap detection in this mouse to the control level"},
      {"measurement": "duration of suppression of spontaneous activity", "setting": "IC neurons; injected IV", "result": "several tens of minutes"},
      {"measurement": "time after injection to suppression of spontaneous activity", "setting": "IC neurons; injected IV", "result": "Several seconds"},
      {"measurement": "effect on spontaneous activity in IC neurons", "setting": "IC neurons; injected IV, vast majority of IC neurons, awake mice", "result": "near complete suppression"},
      {"measurement": "time after systemic drug administration at which background firing was suppressed", "setting": "IC neurons; single IC neuron, FIG. 12", "result": "About 5 min"},
      {"measurement": "time until rate of background activity almost recovered to pre-drug level", "setting": "IC neurons; single IC neuron, FIG. 12", "result": "about 2 hours"},
      {"measurement": "effect on sound-evoked firing", "setting": "IC neurons; single IC neuron, FIG. 12, systemic administration", "result": "unaffected"},
      {"measurement": "effect on spontaneous activity in auditory neurons", "setting": "IC neurons; systemic activation of group II mGluRs, FIG. 10, 15", "result": "dramatically suppressed"}
    ]}
  ]
}
